From ChEMBL document CHEMBL1201862, “PubChem BioAssay data set” (2004)
The source made the active and inactive calls.

Tests used:
BJ [1] = assay: cytotoxicity toward BJ-TERT fibroblasts, dose response, cell-based, RAS-independent, luminescence (AID 1933); assay type: functional; conditions: Homo sapiens
Escherichia coli [2] = assay: microbe, parasite or virus in culture
BJ [3] = assay: cells; assay type: functional, cell-based; conditions: Homo sapiens
BJ [4] = assay: cytotoxicity toward Ras-transformed BJeLR fibroblasts, dose response, cell-based, alamar blue fluorescence, cherrypicked samples (AID 2631); assay type: functional; conditions: Homo sapiens;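 note: confirmatory dose-response assay in RAS-dependent BJ fibroblasts engineered with TERT, LT and ST, with cytotoxicity read by fluorescence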
Beta-galactosidase = Beta-galactosidase (Escherichia coli, UniProt Q8VNN2); assay: PubChem AID 485352; assay type: functional
Vero [5] = assay: host cell cytotoxicity of antiviral hits, dose response, cytotoxicity control for West Nile virus antiviral project, secondary assay (AID 1650); assay type: functional; conditions: Chlorocebus sabaeus
[6] = molecular target: Heat shock protein HSP 90-alpha (Homo sapiens, UniProt P07900); assay type: functional, organism-based
BJ [7] = assay: cytotoxicity toward BJ-TERT-LT-ST fibroblasts, dose response, cell-based, RAS-independent, luminescence (AID 1935); assay type: functional; conditions: Homo sapiens;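 note: BJ fibroblasts immortalized with TERT plus LT and ST oncogenes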
[8] = cytotoxicity toward DRD oncogenic fibroblasts, dose response, cell-based, non-viral oncogenic, luminescence (AID 1934); assay type: functional; conditions: Homo sapiens
[9] = Luminescence-based dose response cell-based high throughput screening assay for cytotoxic compounds using the IEC-6 intestinal epithelial cell line. [Related pubchem assays: 1858 (Summary AID.), 1825 (Counterscreen.), 1907 (Confirmation screen.)]; assay type: functional
[10] = microbe, parasite or virus in culture; assay type: functional; conditions: Mycobacterium tuberculosis
Escherichia coli [11] = assay: microbe, parasite or virus in culture; remark: listed apart in the source
[12] = molecular target: T1, Type-1 angiotensin II receptor (Homo sapiens, UniProt P30556); assay: AT1 receptor antagonists, dose response, selectivity assay for APJ receptor antagonist project, cell-based, uHTS hits (AID 463214); assay type: functional;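 note: antagonist potency against angiotensin II stimulated AT1 response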
T1 sequence (P30556 whole entry): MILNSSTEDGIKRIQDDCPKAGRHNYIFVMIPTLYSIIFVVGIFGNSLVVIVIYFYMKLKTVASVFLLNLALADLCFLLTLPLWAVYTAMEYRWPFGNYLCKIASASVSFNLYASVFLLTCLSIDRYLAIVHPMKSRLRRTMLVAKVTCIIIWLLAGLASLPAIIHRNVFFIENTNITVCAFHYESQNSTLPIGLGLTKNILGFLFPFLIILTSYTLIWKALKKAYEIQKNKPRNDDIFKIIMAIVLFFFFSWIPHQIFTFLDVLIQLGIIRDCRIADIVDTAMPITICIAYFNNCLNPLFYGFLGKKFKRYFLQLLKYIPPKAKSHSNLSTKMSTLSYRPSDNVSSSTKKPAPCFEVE

[13] = molecular target: Serine/threonine-protein phosphatase PP1-alpha catalytic subunit (Homo sapiens, UniProt P62136); assay: PP1 phosphatase inhibitors, dose response, biochemical, fluorescence (AID 2394)
[14] = molecular target: Serine/threonine-protein phosphatase (Homo sapiens, UniProt Q9BPW0); assay: PP5 phosphatase inhibitors, dose response, biochemical, fluorescence (AID 2395)
[15] = insulin promoter down-regulators in MIN6 cells, imaging, high-content screening, mouse beta cells (AID 1628); assay type: functional
HEK293 [16] = assay: NOD1 signaling inhibitors, primary screen, cell-based, luminescence, uHTS (AID 1578); assay type: functional; conditions: Homo sapiens
Streptococcus = assay: Group A Streptococcus viability loss, dose response, counter-screen for streptokinase expression inhibitor project, luminescence, BacTiterGlo (AID 1915); assay type: functional, organism-based;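 note: potency for reduction of bacterial viability or growth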
HEK293 [17] = assay: NOD2 signaling inhibitors in MDP-stimulated cells, cell-based, uHTS, luminescence (AID 2001); assay type: functional; conditions: Homo sapiens
Genome polyprotein [18] = molecular target: Genome polyprotein (Hepatitis C virus, UniProt Q2Q167); assay: HCV core protein dimerization inhibitors, dose response, biochemical, TR-FRET (AID 2159); design: species or system Hepacivirus hominis;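 note: blocks dimerization of HCV core protein measured by TR-FRET between tagged core106 pairs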
[19] = system: Streptococcus sp. 'group A'; assay: growth inhibition of control SK(-) GAS strain, dose response, counter-screen for streptokinase expression inhibitor project, luminescence, kanamycin, BacTiterGlo, confirmation (AID 1900); assay type: functional, organism-based
HEK293 [20] = assay: cells; assay type: functional, cell-based; conditions: Homo sapiens
[21] = cytotoxicity in MIN6 insulinoma cells, dose response, cytotoxicity control, cell-based, mouse insulinoma (AID 2122); assay type: functional;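 note: confirmatory high-throughput counterscreen run to flag cytotoxic compounds; mouse MIN-6 beta cells carrying an insulin promoter eGFP reporter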
HEK293 [22] = assay: cells; assay type: functional, cell-based; conditions: Homo sapiens; remark: listed apart in the source
[23] = M. tuberculosis growth inhibition, HTS (AID 449762); assay type: functional
[24] = StAR promoter reporter inhibition counter-screen, dose response, counter-screen for LRH-1 inverse agonist project, cell-based, luminescence, luciferase reporter (AID 651969); assay type: functional
[25] = molecular target: Nuclear receptor subfamily 5 group A member 2 (Homo sapiens, UniProt O00482); assay type: functional, cell-based;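 note: HEK293T cells transfected with LRH-1 and a StAR promoter luciferase reporter; potency for inhibitors that lower LRH-1 driven reporter light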
[26] = enhancers of respiration in Yfh1-depleted yeast, dose response, Friedreich's ataxia, plus single-dose screen (AID 1465); assay type: functional;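 note: yeast depleted of Yfh1p frataxin homolog grown on glycerol needing respiration; WST-1 tetrazolium dye reduction as measure of cellular dehydrogenase metabolic activity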
Steroidogenic factor 1 = Steroidogenic factor 1 (Homo sapiens, UniProt Q13285); assay: Counterscreen for inverse agonists of the liver receptor homolog-1 (LRH-1; NR5A2): Luminescence-based cell-based high throughput dose response assay to identify inverse agonists of the Steroidogenic Factor 1 Nuclear Receptor (SF1; NR5A1).; assay type: functional
[27] = molecular target: Ras and Rab interactor 1/Tyrosine-protein kinase ABL1 (Homo sapiens, UniProt P00519+Q13671); assay type: functional;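 note: biochemical TR-FRET dose-response test measuring inhibition of binding between Rin1 and Abl proteins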
[28] = molecular target: T2, Mannose-6-phosphate isomerase (Homo sapiens, UniProt P34949); assay: human PMI inhibitors, high substrate, primary screen, biochemical, fluorescence intensity, high mannose 6-phosphate (AID 1220)
T2 sequence (P34949 whole entry): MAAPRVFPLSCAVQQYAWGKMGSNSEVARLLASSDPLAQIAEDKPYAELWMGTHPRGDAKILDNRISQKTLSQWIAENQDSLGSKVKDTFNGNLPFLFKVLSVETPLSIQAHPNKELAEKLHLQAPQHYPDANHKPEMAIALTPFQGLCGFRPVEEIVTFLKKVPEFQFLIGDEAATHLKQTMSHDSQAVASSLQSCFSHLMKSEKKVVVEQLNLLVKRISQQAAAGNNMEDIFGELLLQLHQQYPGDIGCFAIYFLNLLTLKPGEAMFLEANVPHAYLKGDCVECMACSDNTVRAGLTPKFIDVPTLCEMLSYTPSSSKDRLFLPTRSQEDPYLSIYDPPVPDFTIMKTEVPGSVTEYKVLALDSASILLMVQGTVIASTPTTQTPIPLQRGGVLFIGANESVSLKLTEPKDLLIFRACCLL

Genome polyprotein [29] = molecular target: Genome polyprotein (dengue virus type 2, UniProt P29990); assay: Dengue-2 NS5 methyltransferase inhibitors, primary screen, biochemical, confirmation dose response (AID 588689); assay type: functional
[30] = molecular target: T2, Mannose-6-phosphate isomerase; assay: inhibitors of human PMI, primary screen, biochemical, fluorescence intensity, coupled assay (AID 1209)
Vero [31] = assay: cytotoxicity of synthesized analogs in Vero 76, SAR follow-up, cytotoxicity control for West Nile virus antiviral project, Vero 76 cells (AID 2414); assay type: functional; conditions: Chlorocebus sabaeus
Vero [32] = assay: cytotoxicity of synthesized analogs in Vero cells, SAR follow-up, cytotoxicity control for West Nile virus antiviral project, cell-based, set II (AID 2402); assay type: functional; conditions: Chlorocebus sabaeus
[33] = A Cell Based Assay for the Identification of Probe candidate Compounds with Anti- Venezuelan Equine Encephalitis virus. [Related pubchem assays: 2409, 2419, 1621, 2238, 2405, 2024, 2065, 2402, 2414, 1635, 1650, 2244 ]; assay type: functional

Serine/threonine-protein phosphatase PP1-alpha catalytic subunit, sequence (P62136 whole entry): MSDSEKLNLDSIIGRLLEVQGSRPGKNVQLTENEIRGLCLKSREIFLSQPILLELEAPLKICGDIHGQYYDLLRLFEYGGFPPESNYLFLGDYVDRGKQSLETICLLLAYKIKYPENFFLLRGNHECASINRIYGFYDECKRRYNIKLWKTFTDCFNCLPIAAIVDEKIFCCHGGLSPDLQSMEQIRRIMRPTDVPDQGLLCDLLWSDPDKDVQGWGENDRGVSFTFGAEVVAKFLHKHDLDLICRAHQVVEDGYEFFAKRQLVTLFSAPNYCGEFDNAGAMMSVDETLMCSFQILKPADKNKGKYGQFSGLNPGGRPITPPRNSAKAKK
Genome polyprotein (dengue virus type 2, UniProt P29990), sequence (P29990 2492-3391 limits assumed): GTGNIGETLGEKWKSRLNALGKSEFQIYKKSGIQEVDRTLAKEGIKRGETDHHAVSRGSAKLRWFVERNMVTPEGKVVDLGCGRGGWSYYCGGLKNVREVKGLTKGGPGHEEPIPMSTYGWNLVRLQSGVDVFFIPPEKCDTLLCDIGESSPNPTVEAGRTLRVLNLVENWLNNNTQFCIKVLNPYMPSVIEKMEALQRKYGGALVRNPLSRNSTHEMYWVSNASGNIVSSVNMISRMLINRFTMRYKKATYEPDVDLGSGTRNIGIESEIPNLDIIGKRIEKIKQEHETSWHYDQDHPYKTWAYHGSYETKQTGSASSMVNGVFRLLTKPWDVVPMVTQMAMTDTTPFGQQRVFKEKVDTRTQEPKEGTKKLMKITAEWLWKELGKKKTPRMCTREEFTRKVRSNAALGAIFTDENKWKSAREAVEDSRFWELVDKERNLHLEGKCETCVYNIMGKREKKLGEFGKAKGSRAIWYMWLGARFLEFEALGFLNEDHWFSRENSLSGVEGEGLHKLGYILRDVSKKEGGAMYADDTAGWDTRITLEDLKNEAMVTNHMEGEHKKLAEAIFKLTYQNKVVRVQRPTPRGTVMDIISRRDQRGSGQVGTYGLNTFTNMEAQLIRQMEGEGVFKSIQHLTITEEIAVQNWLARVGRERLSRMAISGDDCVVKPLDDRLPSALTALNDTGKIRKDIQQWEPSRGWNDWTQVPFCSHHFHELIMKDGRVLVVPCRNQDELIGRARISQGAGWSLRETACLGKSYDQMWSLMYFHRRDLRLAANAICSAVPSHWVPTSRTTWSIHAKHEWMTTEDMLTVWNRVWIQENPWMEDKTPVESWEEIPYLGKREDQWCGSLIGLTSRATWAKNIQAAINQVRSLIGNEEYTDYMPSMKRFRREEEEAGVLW
Beta-galactosidase, sequence (Q8VNN2 whole entry): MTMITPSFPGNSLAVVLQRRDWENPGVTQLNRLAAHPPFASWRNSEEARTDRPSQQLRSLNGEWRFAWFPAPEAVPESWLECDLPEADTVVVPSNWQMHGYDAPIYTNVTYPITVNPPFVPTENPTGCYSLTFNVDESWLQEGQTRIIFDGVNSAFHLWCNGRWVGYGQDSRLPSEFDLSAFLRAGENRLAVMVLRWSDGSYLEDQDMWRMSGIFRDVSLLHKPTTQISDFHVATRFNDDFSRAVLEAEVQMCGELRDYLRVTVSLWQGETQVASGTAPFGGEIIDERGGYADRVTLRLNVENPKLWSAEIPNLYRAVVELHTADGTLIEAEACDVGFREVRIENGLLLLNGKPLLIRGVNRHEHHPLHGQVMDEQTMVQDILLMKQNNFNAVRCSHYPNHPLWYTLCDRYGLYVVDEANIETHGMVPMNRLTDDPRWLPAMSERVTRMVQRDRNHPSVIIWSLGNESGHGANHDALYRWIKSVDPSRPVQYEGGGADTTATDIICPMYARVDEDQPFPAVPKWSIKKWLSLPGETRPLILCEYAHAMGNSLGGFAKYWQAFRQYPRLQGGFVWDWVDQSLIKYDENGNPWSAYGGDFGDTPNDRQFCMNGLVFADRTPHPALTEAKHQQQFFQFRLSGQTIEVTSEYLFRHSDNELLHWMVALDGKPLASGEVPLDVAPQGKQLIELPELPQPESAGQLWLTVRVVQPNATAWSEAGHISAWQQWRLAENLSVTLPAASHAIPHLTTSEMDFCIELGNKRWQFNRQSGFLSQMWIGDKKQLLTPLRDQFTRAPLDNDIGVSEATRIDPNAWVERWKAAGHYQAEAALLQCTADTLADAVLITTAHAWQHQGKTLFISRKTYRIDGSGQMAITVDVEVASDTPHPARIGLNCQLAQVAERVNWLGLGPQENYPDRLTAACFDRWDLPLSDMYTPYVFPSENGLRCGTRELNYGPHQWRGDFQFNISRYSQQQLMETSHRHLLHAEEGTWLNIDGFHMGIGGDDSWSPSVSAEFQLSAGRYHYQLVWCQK
Steroidogenic factor 1, sequence (Q13285 whole entry): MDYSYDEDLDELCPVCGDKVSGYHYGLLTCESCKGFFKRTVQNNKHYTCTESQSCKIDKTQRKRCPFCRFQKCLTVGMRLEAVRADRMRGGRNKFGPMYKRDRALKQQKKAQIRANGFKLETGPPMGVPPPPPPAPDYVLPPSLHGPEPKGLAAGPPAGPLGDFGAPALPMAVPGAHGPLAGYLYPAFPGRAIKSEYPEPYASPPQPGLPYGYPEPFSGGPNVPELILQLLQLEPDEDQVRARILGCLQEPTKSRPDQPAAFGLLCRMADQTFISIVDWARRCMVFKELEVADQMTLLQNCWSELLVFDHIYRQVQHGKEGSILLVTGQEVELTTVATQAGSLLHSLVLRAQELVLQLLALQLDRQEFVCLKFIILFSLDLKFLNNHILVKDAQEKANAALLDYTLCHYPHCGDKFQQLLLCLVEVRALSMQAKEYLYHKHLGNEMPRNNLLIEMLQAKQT
Genome polyprotein (Hepatitis C virus, UniProt Q2Q167), sequence (Q2Q167 whole entry): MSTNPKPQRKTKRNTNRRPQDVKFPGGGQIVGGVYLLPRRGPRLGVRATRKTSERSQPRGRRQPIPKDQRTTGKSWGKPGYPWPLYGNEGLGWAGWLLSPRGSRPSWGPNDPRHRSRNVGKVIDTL
Nuclear receptor subfamily 5 group A member 2, sequence (O00482 whole entry): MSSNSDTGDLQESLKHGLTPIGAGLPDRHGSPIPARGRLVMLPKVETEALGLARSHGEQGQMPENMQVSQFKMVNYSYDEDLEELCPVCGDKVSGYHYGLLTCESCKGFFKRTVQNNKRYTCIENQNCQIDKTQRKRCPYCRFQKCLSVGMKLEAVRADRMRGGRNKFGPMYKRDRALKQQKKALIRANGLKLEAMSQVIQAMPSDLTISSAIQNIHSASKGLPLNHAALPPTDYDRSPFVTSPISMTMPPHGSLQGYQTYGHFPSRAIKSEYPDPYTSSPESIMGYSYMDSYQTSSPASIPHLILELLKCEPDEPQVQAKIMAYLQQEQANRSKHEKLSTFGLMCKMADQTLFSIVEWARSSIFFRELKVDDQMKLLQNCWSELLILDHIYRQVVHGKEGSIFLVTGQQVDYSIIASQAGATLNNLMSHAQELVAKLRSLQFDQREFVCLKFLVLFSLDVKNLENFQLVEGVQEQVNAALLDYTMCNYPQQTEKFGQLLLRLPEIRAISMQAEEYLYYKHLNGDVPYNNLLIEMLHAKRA
Serine/threonine-protein phosphatase, sequence (Q9BPW0 whole entry): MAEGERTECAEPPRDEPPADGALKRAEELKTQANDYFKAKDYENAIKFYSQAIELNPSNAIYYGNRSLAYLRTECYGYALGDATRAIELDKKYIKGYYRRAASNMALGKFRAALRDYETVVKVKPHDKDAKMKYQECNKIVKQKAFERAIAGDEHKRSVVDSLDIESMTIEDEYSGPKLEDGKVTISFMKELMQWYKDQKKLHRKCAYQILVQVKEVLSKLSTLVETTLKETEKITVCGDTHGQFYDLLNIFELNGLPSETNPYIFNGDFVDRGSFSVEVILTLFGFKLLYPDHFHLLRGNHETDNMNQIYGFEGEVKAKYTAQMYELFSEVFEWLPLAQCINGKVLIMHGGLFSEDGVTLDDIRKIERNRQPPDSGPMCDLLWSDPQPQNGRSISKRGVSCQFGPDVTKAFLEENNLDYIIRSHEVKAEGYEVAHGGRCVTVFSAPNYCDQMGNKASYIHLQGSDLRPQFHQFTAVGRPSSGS

**Q.** For Cc1ccc(C(=O)Sc2cccccc2=O)cc1, which EC50 (BJ [1]) is on record?
**A.** The EC50 was 0.659 µM (inconclusive).

**Q.** And the AC50 (Escherichia coli [2])?
**A.** Its AC50 is 12.7 µM (active).

**Q.** And the EC50 (BJ [3])?
**A.** Its EC50 is 26 µM (active).

**Q.** What about the EC50 (BJ [4]) of the same molecule?
**A.** Its EC50 is 0.075 µM (active).

**Q.** And the EC50 (Beta-galactosidase)?
**A.** Its EC50 is > 40 µM (inactive).

**Q.** And the CC50 (Vero [5])?
**A.** Its CC50 is 48.4 µM (active).

**Q.** And the AC50 [6]?
**A.** Its AC50 is 6.06 µM (active).

**Q.** And the EC50 (BJ [7])?
**A.** Its EC50 is 54.9 µM (active).

**Q.** And the EC50 [8]?
**A.** The EC50 was 25.5 µM (active).

**Q.** What about the IC50 [9] of the same molecule?
**A.** The IC50 was 0.848 µM (active).

**Q.** And the CC50 [10]?
**A.** The CC50 was 11.5 µM (active).

**Q.** What about the AC50 (Escherichia coli [11]) of the same molecule?
**A.** Its AC50 is 17 µM (active).

**Q.** What about the IC50 [12] of the same molecule?
**A.** Its IC50 is < 1.25 µM (active).

**Q.** For COCCNC(=O)c1c(N)n(CCC(C)C)c2nc3ccccc3nc12, which IC50 [13] is on record?
**A.** Its IC50 is 56.5 µM (not active).

**Q.** What about the IC50 [14] of the same molecule?
**A.** Its IC50 is 13.4 µM (not active).

**Q.** For CC(C)=CCc1c(O)cc2oc3c(CC=C(C)C)c(O)c(O)c(CC=C(C)C)c3c(=O)c2c1O [GARCINONE E], which IC50 [15] is on record?
**A.** The IC50 was 2.79 µM (active).

**Q.** What about the EC50 (HEK293 [16]) of the same molecule?
**A.** Its EC50 is 4.78 µM (active).

**Q.** What about the EC50 (Streptococcus) of the same molecule?
**A.** Its EC50 is 3.02 µM (active).

**Q.** And the IC50 (HEK293 [17])?
**A.** The IC50 was 4.65 µM (inactive).

**Q.** And the IC50 (Genome polyprotein [18])?
**A.** The IC50 was > 49.8 µM (not active).

**Q.** What about the EC50 [19] of the same molecule?
**A.** Its EC50 is 0.813 µM (active).

**Q.** And the IC50 (HEK293 [20])?
**A.** The IC50 was > 20 µM (inactive).

**Q.** And the IC50 [21]?
**A.** Its IC50 is 3.46 µM (active).

**Q.** And the IC50 (HEK293 [22])?
**A.** The IC50 was 6.77 µM (active).

**Q.** For CN1CCN(c2ccc(C(=O)c3cn(-c4ccc(F)c(Cl)c4)nn3)cc2)CC1, which IC50 [23] is on record?
**A.** The IC50 was > 100 µM (active).

**Q.** What about the CC50 [10] of the same molecule?
**A.** Its CC50 is 15 µM (active).

**Q.** With CC1CCCN(c2cc(N(C)CCO)c([N+](=O)[O-])c3nonc23)C1 (configuration not stated) as the molecule, how does the IC50 [24] read?
**A.** Its IC50 is 35.9 µM (inactive).

**Q.** And the IC50 [25]?
**A.** The IC50 was 12.3 µM (inactive).

**Q.** And the EC50 [26]?
**A.** Its EC50 is > 100 µM (active).

**Q.** What about the IC50 (Steroidogenic factor 1) of the same molecule?
**A.** Its IC50 is 7.01 µM (active).

**Q.** For Oc1ccc(/C=N/N2CCOCC2)c(O)c1O, which IC50 [27] is on record?
**A.** The IC50 was > 73.5 µM (inactive).

**Q.** And the IC50 [28]?
**A.** The IC50 was 10.3 µM (active).

**Q.** And the IC50 (Genome polyprotein [29])?
**A.** The IC50 was 45 µM (active).

**Q.** What about the IC50 [30] of the same molecule?
**A.** The IC50 was 11.6 µM (active).

**Q.** With COc1cccc2c(=O)n(-c3ccccc3)c(SCC(=O)Nc3ccc4c(c3)CCC4)nc12 as the molecule, how does the CC50 (Vero [31]) read?
**A.** Its CC50 is < 0.26 µM (active).

**Q.** What about the CC50 (Vero [32]) of the same molecule?
**A.** The CC50 was > 200 µM (active).

**Q.** And the IC50 [33]?
**A.** The IC50 was < 0.26 µM (active).
